{
  "source": "patent US5326788A",
  "about": "“Biological fluid purification system” (priority 1992, dated 1994)",
  "key": {"[1]": {"test_system": "purified reverse transcriptase from avian myeloblastosis virus", "test": "Direct incubation with purified reverse transcriptase", "type": "biochemical", "protocol": "(§1) In FIG. 1, open squares represent hypericin-treated and pluses represent pseudohypericin treated HIV. […] Inactivation of the reverse transcriptase activity of the virions was not a result of a direct inhibition of reverse transcriptase activity per se, as incubation of either compound directly with purified reverse transcriptase from either avian myeloblastosis virus or murine leukemia virus had no effect on enzyme activity. Furthermore, aliquots of HIV derived from these H9 cell cultures lost the ability to replicate in culture when exposed to as little as 0.77 micrograms/ml of hypericin."}, "[2]": {"molecular_target": "purified reverse transcriptase from murine leukemia virus (Moloney murine leukemia virus isolate Shinnick, UniProt P03355)", "test": "Direct incubation with purified reverse transcriptase", "type": "biochemical", "protocol": "as §1"}, "[3]": {"test": "Toxicity of hypericin administered to mice", "type": "in vivo", "protocol": "In general, up to 100 mg and preferably between 1 mg and about 10 mg of the antiviral compounds may be employed to completely eliminate the infectivity properties of human retroviruses such as HIV in one unit of whole blood. Intravenous transfusion or administration of blood containing this level of hypericin for example should pose no serious toxicity or tolerance threat to human recipients of such transfused blood. […] This correlates with a dose of approximately 25 mg i.v. in man, or twenty times the dose that would be received from a transfusion of 1 unit of whole blood containing 2.5 micrograms/ml hypericin. In addition, i.e. administration of 1.2 mg of hypericin in phosphate buffered saline (PBS) containing 10% ethanol to a mouse was not lethal. (Naturally, it is preferred to use the minimum amount of the antiviral compounds that is effective to terminate the infectivity of the target virus in a given biological fluid. The minimum effective amount required for abolishing infectivity of a particular viral species suspected to be present in a biological fluid can be easily determined through the exercise of routine experimentation.)"}, "[4]": {"test_system": "HIV", "test": "Incubation time of free HIV virus with hypericin needed to inhibit infectivity", "type": "cell-based, Human Immunodeficiency Virus (HIV)"}, "[5]": {"test_system": "HIV", "test": "Infectivity (ability to replicate in culture) of HIV derived from H9 cell cultures", "type": "cell-based, Human Immunodeficiency Virus (HIV)", "protocol": "FIG. 2 is a graph showing the effect of hypericin and pseudohypericin on the infectivity of HIV cultured from an AIDS patient.\nas §1"}},
  "data": [
    {"molecule": "Cc1cc(O)c2c(=O)c3c(O)cc(O)c4c5c(O)cc(O)c6c(=O)c7c(O)cc(C)c8c1c2c(c34)c(c78)c65", "note": "[hypericin]", "values": [
      {"measurement": "effect on enzyme activity of purified reverse transcriptase", "setting": "[1]", "result": "no effect"},
      {"measurement": "effect on enzyme activity of purified reverse transcriptase", "setting": "[2]", "result": "no effect"},
      {"measurement": "corresponding dose in man", "setting": "[3]; i.v., extrapolated from 100 micrograms per mouse", "result": "approximately 25 mg"},
      {"measurement": "toxic side effects", "setting": "[3]; mice, intravenous, 100 micrograms per mouse", "result": "not exhibited any toxic side effects"},
      {"measurement": "lethality", "setting": "[3]; mouse, 1.2 mg in PBS containing 10% ethanol", "result": "not lethal"},
      {"measurement": "inhibition of virus infectivity", "setting": "[4]; 10 and 5 minutes incubation", "result": "complete"},
      {"measurement": "inhibition of virus infectivity", "setting": "[4]; only the time to add compound and centrifuge", "result": "significant inhibition"},
      {"measurement": "concentration abolishing infectivity of HIV (loss of ability to replicate in culture)", "setting": "[5]", "result": 0.77, "unit": "micrograms/ml"},
      {"measurement": "minimal effective concentration", "setting": "[5]; Human immunodeficiency virus 1, read-out: concentration abolishing infectivity of HIV (loss of ability to replicate in culture)", "result": 0.77, "unit": "µg/mL"}
    ]}
  ]
}
